Measurements published in US12691070B2, “Cationic lipids and preparation method thereof” (RiboX Therapeutics HK Limited, priority 2023, dated 2026).

Tests used:
RAW 264.7 cells [1] = test: In vitro toxicity (CellTiter-Glo cell viability), RAW 264.7; format: cell-based;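 also: percent of untreated cells luminescence signal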
In short: (§1)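 First, cells receive RNA-LNPs at 1 μg/mL by transfection. After 72 hours, CellTiter-Glo reagent is added per kit protocol. Luminescence is then read and converted to cell viability.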

MCP-I = MCP-I cytokine elevation in serum; format: in vivo; conditions: cirRNA (SEQ ID NO: 1) LNPs, mice
Experimental: 6-8 week old, female BALB/C mice were injected with 0.5 mg*kg-1 of RNA LNPs by intravenous injection. At 2 and 24 hours post injection, animals were bled and sera concentrations of MCP-I were determined by an immunoassay (Luminex).

[2] = test system: Aspartate Aminotransferase (AST); test: Liver enzyme elevation in serum, AST; format: in vivo; conditions: cirRNA (SEQ ID NO: 1) LNPs, BALB/C mice, intravenous 0.5 MPK
Experimental: (§2) 6-8 week old, female BALB/C mice were injected with 0.5 mg*kg-1 of RNA LNPs by intravenous injection. At 2 and 24 hours post injection, animals were bled and sera concentrations of Alanine Aminotransferase (ALT) and Aspartate Aminotransferase (AST) were determined by a blood chemistry analyzer.

BALB/C mice [3] = test: In vivo expression, whole-body luminescence (IVIS)
Experimental: 6-8 week old, female BALB/C mice were injected with 0.05 mg*kg-1 of RNA-LNPs encoding for firefly-luciferase by intravenous injection. At 6 hours post injection, animals were intraperitoneally injected with 15 mg/ml of Luciferin substrate and whole-body luminescence was determined by a bioluminescent in vivo imaging system (IVIS).

[4] = RNA encapsulation efficacy by Quant-IT Ribogreen kit; format: physicochemical; conditions: for Encapsulation Efficiency %: LNP with cirRNA (SEQ ID NO: 1); for Encapsulation Efficiency: LNP with mRNA (SEQ ID NO: 2)
In short: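 Encapsulation efficacy came from Ribogreen fluorescence of LNPs compared with Triton X-100-lysed LNPs. The particles carried luciferase-encoding circular or linear RNA at an ionizable lipid:ribonucleotide ratio of 15 or 6.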

[5] = LNP zeta potential (Zetasizer); format: physicochemical
In short: (§3)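 LNPs of ionizable lipid/DSPC/cholesterol/DMG-PEG 2000 (50:10:38.5:1.5) made by microfluidic mixing of luciferase circRNA or mRNA in pH 4.5 acetate with lipids in ethanol (3:1, 12 ml/min), ionizable lipid:nucleotide 15 or 6, then dialyzed against PBS. Size, PDI (DLS) and zeta potential on Zetasizer; encapsulation by Ribogreen ± Triton X-100.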

[6] = LNP size and polydispersity index (PDI) by dynamic light scattering; format: physicochemical; conditions: for Size: in nm (unit assumed)
In short: as §3

BALB/C mice [7] = test: Local tolerance determination by footpad injection; format: in vivo; conditions: cirRNA (SEQ ID NO: 1) LNP, 0.175 mg*kg-1 subcutaneous into the footpad, 24 hours post minus prior
Experimental: 6-8 week old, female BALB/C mice were injected with 0.175 mg*kg-1 RNA LNPs by subcutaneous injection into the footpad. Prior to, and 24 hours post injections, injected footpad thickness was determined by a caliper.

Hep G2 cells [8] = test: In vitro expression of firefly-luciferase, Hep G2; format: cell-based
In short: (§4)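 Transfection used 100 ng/mL luciferase-encoding RNA-LNPs; activity in lysates was determined at 72 h.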

Hep G2 cells [9] = test: In vitro toxicity (CellTiter-Glo cell viability), Hep G2; format: cell-based;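 also: percent of untreated cells luminescence signal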
In short: as §1

[10] = test system: Alanine Aminotransferase (ALT); test: Liver enzyme elevation in serum, ALT; format: in vivo; conditions: cirRNA (SEQ ID NO: 1) LNPs, BALB/C mice, intravenous 0.5 MPK
Experimental: as §2

RAW 264.7 cells [11] = test: In vitro expression of firefly-luciferase, RAW 264.7; format: cell-based
In short: as §4

[12] = cirRNA (SEQ ID NO: 1) LNPs, RAW 264.7 cells
[13] = mRNA (SEQ ID NO: 2) LNP, 1 μg/mL, 72 hours post transfection
[14] = cirRNA (SEQ ID NO: 1) LNPs, BALB/C mice
[15] = mRNA (SEQ ID NO: 2) LNP, 0.05 mg*kg-1 intravenous, 6 hours post injection
[16] = cirRNA (SEQ ID NO: 1) LNPs, firefly-luciferase luminescence, Hep G2 cells
[17] = mRNA (SEQ ID NO: 2) LNP, 100 ng/mL, 72 hours post transfection, luciferase activity
[18] = cirRNA (SEQ ID NO: 1) LNPs, Hep G2 cells
[19] = cirRNA (SEQ ID NO: 1) LNPs, firefly-luciferase luminescence, RAW 264.7 cells

Row | MCP-I in Sera 2 hours After 0.5 MPK Injection (MCP-I) | MCP-I in Sera 24 hours After 0.5 MPK Injection (MCP-I) | Encapsulation Efficiency % [4] | Encapsulation Efficiency [4] | Zeta (mV) ([5]; LNP with cirRNA (SEQ ID NO: 1)) | Zeta (mV) ([5]; LNP with mRNA (SEQ ID NO: 2)) | PDI ([6]; LNP with cirRNA (SEQ ID NO: 1)) | Size ([6]; LNP with cirRNA (SEQ ID NO: 1)) | PDI ([6]; LNP with mRNA (SEQ ID NO: 2)) | Size ([6]; LNP with mRNA (SEQ ID NO: 2)) | SMILES | In vitro Viability RAW (RAW 264.7 cells [1]; [12]) | In vitro Viability RAW (RAW 264.7 cells [1]; [13]) | AST in Sera (IU/L) 2 hours After 0.5 MPK Injection [2] | AST in Sera (IU/L) 24 hours After 0.5 MPK Injection [2] | In vivo Expression (Whole Body) (BALB/C mice [3]; [14]) | In vivo Expression (Whole Body) (BALB/C mice [3]; [15]) | Footpad Thickness (24 h−0 h, mm) (BALB/C mice [7]) | In vitro Expression HepG2 (Hep G2 cells [8]; [16]) | In vitro Expression HepG2 (Hep G2 cells [8]; [17]) | In vitro Viability HepG2 (Hep G2 cells [9]; [18]) | further results
1 | 6709.61 pg/mL | 69.59 pg/mL | 95% | 93.50% | −2.35 mV | 3.769 mV | 0.03 | 93.46 | 0.07065 | 122.1 | CCCCCCCCC(CCCCCCCC)OC(=O)CCCCCCCN(CCCCCCCCOC(=O)C(CCCCCC)CCCCCCCC)CCOC(=O)NCCN1CCCC1 (stereo not drawn) [Lipid 148, 8-((8-(heptadecan-9-yloxy)-8-oxooctyl)(2-(((2-(pyrrolidin-1-yl)ethyl)carbamoyl)oxy)ethyl)amino)octyl 2-hexyldecanoate] | 21% | 102% | 136.17 IU/L | 108.13 IU/L | 5.07E+08 | 1.69E+09 | 0.23 mm | 2.35E+06 | 6.39E+02 | 47% | In vitro Viability HepG2 (Hep G2 cells [9]; [13]): 128%; ALT in Sera (IU/L) 2 hours After 0.5 MPK Injection [10]: 53.60 IU/L; ALT in Sera (IU/L) 24 hours After 0.5 MPK Injection [10]: 59.93 IU/L; In vitro Expression RAW (RAW 264.7 cells [11]; [19]): 2.40E+05; In vitro Expression RAW (RAW 264.7 cells [11]; [17]): 8.69E+05
2 | 127.19 pg/mL | 113.67 pg/mL | 91% | 86.43% | −1.76 mV | −0.3264 mV | 0.05 | 90.53 | 0.1265 | 98.24 | CCCCCCCCCCCOC(=O)CCCCCN(CCCCCCCC(=O)OC(CCCCCCCC)CCCCCCCC)CCOC(=O)NCCN1CCCCC1 [Lipid 165] | 88% | 101% | 128.43 IU/L | 99.03 IU/L | 1.11E+08 | 1.63E+08 | 0.32 mm | 7.20E+05 | 3.27E+06 | 94% | In vitro Viability HepG2 (Hep G2 cells [9]; [13]): 93%; ALT in Sera (IU/L) 2 hours After 0.5 MPK Injection [10]: 63.90 IU/L; ALT in Sera (IU/L) 24 hours After 0.5 MPK Injection [10]: 61.47 IU/L; In vitro Expression RAW (RAW 264.7 cells [11]; [19]): 5.29E+04; In vitro Expression RAW (RAW 264.7 cells [11]; [17]): 6.06E+05

Further lines, the molecule ahead of its results:

Row | SMILES | MCP-I in Sera 2 hours After 0.5 MPK Injection (MCP-I) | MCP-I in Sera 24 hours After 0.5 MPK Injection (MCP-I) | Encapsulation Efficiency % [4] | Encapsulation Efficiency [4] | Zeta (mV) ([5]; LNP with cirRNA (SEQ ID NO: 1)) | Zeta (mV) ([5]; LNP with mRNA (SEQ ID NO: 2)) | PDI ([6]; LNP with cirRNA (SEQ ID NO: 1)) | Size ([6]; LNP with cirRNA (SEQ ID NO: 1)) | PDI ([6]; LNP with mRNA (SEQ ID NO: 2)) | Size ([6]; LNP with mRNA (SEQ ID NO: 2)) | In vitro Viability RAW (RAW 264.7 cells [1]; [12]) | In vitro Viability RAW (RAW 264.7 cells [1]; [13]) | AST in Sera (IU/L) 2 hours After 0.5 MPK Injection [2] | AST in Sera (IU/L) 24 hours After 0.5 MPK Injection [2] | In vivo Expression (Whole Body) (BALB/C mice [3]; [14]) | In vivo Expression (Whole Body) (BALB/C mice [3]; [15]) | Footpad Thickness (24 h−0 h, mm) (BALB/C mice [7]) | In vitro Expression HepG2 (Hep G2 cells [8]; [16]) | In vitro Expression HepG2 (Hep G2 cells [8]; [17]) | In vitro Viability HepG2 (Hep G2 cells [9]; [18]) | further results
3 | CCCCC/C=C\C/C=C\CCCCCCCCN(CCCCCCCC(=O)OC(CCCCCCCC)CCCCCCCC)CCOC(=O)NCCCN(CC)CC [Lipid 131, heptadecan-9-yl 3-ethyl-12-((9Z,12Z)-octadeca-9,12-dien-1-yl)-8-oxo-9-oxa-3,7,12-triazaicosan-20-oate] | 5003.82 pg/mL | 16.42 pg/mL | 96% | 90.68% | 5.61 mV | 15.29 mV | 0.22 | 74.78 | 0.1606 | 84.16 | 77% | 96% | 161.27 IU/L | 83.17 IU/L | 2.27E+08 | 4.52E+07 | 1.17 mm | 4.49E+06 | 5.66E+06 | 83% | In vitro Viability HepG2 (Hep G2 cells [9]; [13]): 89%; ALT in Sera (IU/L) 2 hours After 0.5 MPK Injection [10]: 51.17 IU/L; ALT in Sera (IU/L) 24 hours After 0.5 MPK Injection [10]: 44.57 IU/L; In vitro Expression RAW (RAW 264.7 cells [11]; [19]): 4.04E+06; In vitro Expression RAW (RAW 264.7 cells [11]; [17]): 9.55E+05
4 | CCCCC/C=C\C/C=C\CCCCCCCCN(CCCCCCCC(=O)OC(CCCCCCCC)CCCCCCCC)CCOC(=O)NCc1ncc[nH]1 [Lipid 132, heptadecan-9-yl 8-((2-((((1H-imidazol-2-yl)methyl)carbamoyl)oxy)ethyl)((9Z,12Z)-octadeca-9,12-dien-1-yl)amino)octanoate] | 28.53 pg/mL | 96.56 pg/mL | 97% | 89.06% | −0.7024 mV | −8.336 mV | 0.072 | 91.78 | 0.2359 | 56.12 | 108% | 93% | 136.00 IU/L | 72.53 IU/L | 6.13E+08 | 6.62E+08 | 1.24 mm | 1.44E+05 | 1.83E+05 | 97% | In vitro Viability HepG2 (Hep G2 cells [9]; [13]): 80%; ALT in Sera (IU/L) 2 hours After 0.5 MPK Injection [10]: 65.03 IU/L; ALT in Sera (IU/L) 24 hours After 0.5 MPK Injection [10]: 44.73 IU/L; In vitro Expression RAW (RAW 264.7 cells [11]; [19]): 4.24E+05; In vitro Expression RAW (RAW 264.7 cells [11]; [17]): 1.27E+05
5 | CCCCCCCCCCC(CCCCCCCC)COC(=O)CCCCCN(CCCCCC(=O)OCC(CCCCCCCC)CCCCCCCCCC)CCOC(=O)NCCN1CCCC1 (stereo not drawn) [Lipid 168] | 4607.51 pg/mL | 75.08 pg/mL | 97% | 89.10% | −0.573 mV | 0.8152 mV | 0.06 | 93.98 | 0.101 | 68.36 | 79% | 75% | 218.63 IU/L | 139.13 IU/L | 4.82E+08 | 5.89E+09 | 1.13 mm | 1.03E+07 | 1.80E+07 | 55% | In vitro Viability HepG2 (Hep G2 cells [9]; [13]): 70%; ALT in Sera (IU/L) 2 hours After 0.5 MPK Injection [10]: 72.80 IU/L; ALT in Sera (IU/L) 24 hours After 0.5 MPK Injection [10]: 57.60 IU/L; In vitro Expression RAW (RAW 264.7 cells [11]; [19]): 1.66E+06; In vitro Expression RAW (RAW 264.7 cells [11]; [17]): 6.99E+05
6 | CCCCCCCCCCC(CCCCCCCC)COC(=O)CCCCCN(CCCCCC(=O)OCC(CCCCCCCC)CCCCCCCCCC)CCOC(=O)NCCN1CCCCC1 (stereo not drawn) [Lipid 169] | 509.14 pg/mL | 80.18 pg/mL | 95% | 87.64% | −2.92 mV | −0.8755 mV | 0.003 | 73.59 | 0.07881 | 88.09 | 82% | 83% | 129.50 IU/L | 87.00 IU/L | 4.92E+08 | 1.46E+09 | 0.84 mm | 1.94E+06 | 1.59E+07 | 88% | In vitro Viability HepG2 (Hep G2 cells [9]; [13]): 93%; ALT in Sera (IU/L) 2 hours After 0.5 MPK Injection [10]: 65.40 IU/L; ALT in Sera (IU/L) 24 hours After 0.5 MPK Injection [10]: 57.80 IU/L; In vitro Expression RAW (RAW 264.7 cells [11]; [19]): 5.36E+05; In vitro Expression RAW (RAW 264.7 cells [11]; [17]): 2.87E+06
